Test results published in patent US10219513B2, “Safening 4-amino-3-chloro-6-(4-chloro-2-fluoro-3-methoxyphenyl)-5-fluoropyridine-2-carboxylic acid compositions in Brassica species and methods of use thereof” (Dow AgroSciences LLC, priority 2016, dated 2019).
“And” between values parts separate entries of the source, which are not always exact repeats. Equal entries are not always repeated.

Experiments:
[1] = test system: Brassica alboglabra (kale/Chinese kale, BRSAG); experiment: Greenhouse postemergence application, visual injury after 20-22 d, BRSAG; conditions: for Obs % visual injury: BRSAG
Description: (§1) Seeds of the desired test plant species were planted in Sun Gro MetroMix® 306 planting mixture, which typically has a pH of 6.0 to 6.8 and an organic matter content of about 30 percent, in plastic pots with a surface area of 103.2 square centimeters (cm^2). […] The plants were grown for 7-36 days (d) in a greenhouse with an approximate 14-hour (h) photoperiod which was maintained at about 23° C. during the day and 22° C. during the night. Nutrients and water were added on a regular basis and supplemental lighting was provided with overhead metal halide 1000-Watt lamps as necessary. The plants were employed for testing when they reached the second or third true leaf stage.
(§2) An aliquot of formulated benzyl 4-amino-3-chloro-6-(4-chloro-2-fluoro-3-methoxyphenyl)-5-fluoropyridine-2-carboxylate (florpyrauxifen-benzyl; 300 grams active ingredient per liter (g ai/L) suspension concentrate (SC)) was placed in a 25 mL glass vial and diluted in a volume of 1.25% (v/v) aqueous Agri-dex crop oil concentrated to obtain a stock solution. […] The concentrated stock solutions were diluted with an aqueous mixture of 1.25% v/v of aqueous Agri-dex crop oil concentrate to provide the appropriate application rates. Compound requirements are based upon a 12 milliliter (mL) application volume at a rate of 187 liters per hectare (L/ha). Stock solutions of the formulated materials were prepared following the same procedure. Spray solutions of the compound mixtures were prepared by adding the stock solutions to the appropriate amount of dilution solution to form a 12 mL spray solution. Formulated compounds were applied to the plant material with an overhead Mandel track sprayer equipped with 8002E nozzles calibrated to deliver 187 L/ha over an application area of 0.503 square meters (m^2) at a spray height of 18 inches (43 centimeters (cm)) above average plant canopy. Control plants were sprayed in the same manner with the solvent blank.
(§3) The treated plants and control plants were placed in a greenhouse as described above and watered by sub-irrigation to prevent wash-off of the test compounds. After 20-22 d, the condition of the test plants as compared with that of the control plants was determined visually and scored on a scale of 0 to 100 percent where 0 corresponds to no injury and 100 corresponds to complete kill. Colby's equation was used to determine the herbicidal effects expected from the mixtures.
(§4) Benzyl 4-amino-3-chloro-6-(4-chloro-2-fluoro-3-methoxyphenyl)-5-fluoropyridine-2-carboxylate (florpyrauxifen-benzyl, 300 g ai/L SC) was combined in two-, three-, and four-way mixtures with one or more of the following: clopyralid-olamine (as Lontrel™ 35A Herbicidal Concentrate), quinclorac (as Facet 75DF), isoxadifen-ethyl (100 g/L SC), cloquintocet-mexyl (120 g/L EC) or mefenpyr-diethyl (as mefenpyr-diethyl 15WP). The mixtures were applied to kale/Chinese kale (Brassica alboglabra, BRSAG), Juncea canola or brown mustard (Brassica juncea, BRSJU), rutabaga (Brassica napus var. napobrassica, BRSNA), all varieties of canola and oilseed rape (Brassica napus, BRSNN), Nexera™ canola (Brassica napus, BRSNN-NEX), winter oilseed rape (Brassica napus, BRSNW), Roundup Ready® canola (Brassica napus, RR-BRSNN), and turnip or Polish canola (Brassica rapa, BRSRR), and the phytotoxicity of the compositions was measured.
(§5) Colby's equation was used to determine the herbicidal effects expected from the mixtures evaluated in the described trials (Colby, S. R. Calculation of the synergistic and antagonistic response of herbicide combinations. Weeds 1967, 15, 20-22.).
(§6) The following equation was used to calculate the expected activity of mixtures containing two active ingredients, A and B: Expected=A+B−(A×B/100) • A=observed efficacy of active ingredient A at the same concentration as used in the mixture; • B=observed efficacy of active ingredient B at the same concentration as used in the mixture.

[2] = test system: Brassica juncea (Juncea canola or brown mustard, BRSJU); experiment: Greenhouse postemergence application, visual injury after 20-22 d, BRSJU; conditions: for Obs % visual injury: BRSJU
Description: as §1, §2, §3, §4, §5, §6

[3] = test system: Brassica napus var. napobrassica (rutabaga, BRSNA); experiment: Greenhouse postemergence application, visual injury after 20-22 d, BRSNA; conditions: for Obs % visual injury: BRSNA
Description: as §1, §2, §3, §4, §5, §6

[4] = test system: Brassica napus (all varieties of canola and oilseed rape, BRSNN); experiment: Greenhouse postemergence application, visual injury after 20-22 d, BRSNN; conditions: for Obs % visual injury: BRSNN
Description: as §1, §2, §3, §4, §5, §6

[5] = test system: Brassica napus (Nexera canola, BRSNN-NEX); experiment: Greenhouse postemergence application, visual injury after 20-22 d, BRSNN-NEX; conditions: for Obs % visual injury: BRSNN-NEX
Description: as §1, §2, §3, §4, §5, §6

[6] = test system: Brassica napus (winter oilseed rape, BRSNW); experiment: Greenhouse postemergence application, visual injury after 20-22 d, BRSNW; conditions: for Obs % visual injury: BRSNW
Description: as §1, §2, §3, §4, §5, §6

[7] = test system: Brassica rapa (turnip or Polish canola, BRSRR); experiment: Greenhouse postemergence application, visual injury after 20-22 d, BRSRR; conditions: for Obs % visual injury: BRSRR
Description: as §1, §2, §3, §4, §5, §6

[8] = test system: Brassica napus (Roundup Ready canola, RR-BRSNN); experiment: Greenhouse postemergence application, visual injury after 20-22 d, RR-BRSNN; conditions: for Obs % visual injury: RR-BRSNN
Description: as §1, §2, §3, §4, §5, §6

[9] = clopyralid-olamine 50 g ai/ha alone
[10] = clopyralid-olamine 100 g ai/ha alone
[11] = clopyralid-olamine 200 g ai/ha alone
[12] = postemergence application, greenhouse, application rate (g ai/ha) varies

CCOC(=O)C1=NN(c2ccc(Cl)cc2Cl)C(C)(C(=O)OCC)C1 (racemic) [Mefenpyr-diethyl, diethyl (RS)-1-(2,4-dichlorophenyl)-5-methyl-2-pyrazoline-3,5-dicarboxylate]
0%: Obs % visual injury BRSAG ([1]; safener alone 5 g ai/ha) | Obs % visual injury BRSAG ([1]; safener alone 10 g ai/ha) | Obs % visual injury BRSAG ([1]; safener alone 20 g ai/ha) | Obs % visual injury BRSAG ([1]; safener alone 40 g ai/ha) | Obs % visual injury BRSJU ([2]; safener alone 5 g ai/ha) | Obs % visual injury BRSJU ([2]; safener alone 10 g ai/ha) | Obs % visual injury BRSJU ([2]; safener alone 20 g ai/ha) | Obs % visual injury BRSJU ([2]; safener alone 40 g ai/ha) | Obs % visual injury BRSNA ([3]; safener alone 5 g ai/ha) | Obs % visual injury BRSNA ([3]; safener alone 10 g ai/ha) | Obs % visual injury BRSNA ([3]; safener alone 20 g ai/ha) | Obs % visual injury BRSNA ([3]; safener alone 40 g ai/ha) | Obs % visual injury BRSNN ([4]; safener alone 5 g ai/ha) | Obs % visual injury BRSNN ([4]; safener alone 10 g ai/ha) | Obs % visual injury BRSNN ([4]; safener alone 20 g ai/ha) | Obs % visual injury BRSNN ([4]; safener alone 40 g ai/ha) | Obs % visual injury BRSNN-NEX ([5]; safener alone 5 g ai/ha) | Obs % visual injury BRSNN-NEX ([5]; safener alone 10 g ai/ha) | Obs % visual injury BRSNN-NEX ([5]; safener alone 20 g ai/ha) | Obs % visual injury BRSNN-NEX ([5]; safener alone 40 g ai/ha) | Obs % visual injury BRSNW ([6]; safener alone 5 g ai/ha) | Obs % visual injury BRSNW ([6]; safener alone 10 g ai/ha) | Obs % visual injury BRSNW ([6]; safener alone 20 g ai/ha) | Obs % visual injury BRSNW ([6]; safener alone 40 g ai/ha) | Obs % visual injury BRSRR ([7]; safener alone 5 g ai/ha) | Obs % visual injury BRSRR ([7]; safener alone 10 g ai/ha) | Obs % visual injury BRSRR ([7]; safener alone 20 g ai/ha) | Obs % visual injury BRSRR ([7]; safener alone 40 g ai/ha) | Obs % visual injury RR-BRSNN ([8]; safener alone 5 g ai/ha) | Obs % visual injury RR-BRSNN ([8]; safener alone 10 g ai/ha) | Obs % visual injury RR-BRSNN ([8]; safener alone 20 g ai/ha) | Obs % visual injury RR-BRSNN ([8]; safener alone 40 g ai/ha)

O=C(O)c1nc(Cl)ccc1Cl [Clopyralid-olamine, 2-hydroxyethanaminium 3,6-dichloro-2-pyridinecarboxylate]
2%: Obs % visual injury ([4]; partner alone 50 g ai/ha) | % Visual Injury BRSNN Obs [4, 9] | % Visual Injury Obs [4, 9]
2% and 0%: % Visual Injury BRSNN Obs [4, 12]
0%: Obs % visual injury ([1]; partner alone 50 g ai/ha) | Obs % visual injury ([1]; partner alone 100 g ai/ha) | Obs % visual injury ([1]; partner alone 200 g ai/ha) | % Visual Injury BRSAG Obs [1, 9] | % Visual Injury Obs [1, 9] | % Visual Injury BRSAG Obs [1, 10] | % Visual Injury Obs [1, 10] | % Visual Injury BRSAG Obs [1, 11] | % Visual Injury Obs [1, 11] | % Visual Injury BRSAG Obs [1, 12] | Obs % visual injury ([2]; partner alone 50 g ai/ha) | Obs % visual injury ([2]; partner alone 100 g ai/ha) | Obs % visual injury ([2]; partner alone 200 g ai/ha) | % Visual Injury BRSJU Obs [2, 9] | % Visual Injury Obs [2, 9] | % Visual Injury BRSJU Obs [2, 10] | % Visual Injury Obs [2, 10] | % Visual Injury BRSJU Obs [2, 11] | % Visual Injury Obs [2, 11] | % Visual Injury BRSJU Obs [2, 12] | Obs % visual injury ([3]; partner alone 50 g ai/ha) | Obs % visual injury ([3]; partner alone 100 g ai/ha) | Obs % visual injury ([3]; partner alone 200 g ai/ha) | % Visual Injury BRSNA Obs [3, 9] | % Visual Injury Obs [3, 9] | % Visual Injury BRSNA Obs [3, 10] | % Visual Injury Obs [3, 10] | % Visual Injury BRSNA Obs [3, 11] | % Visual Injury Obs [3, 11] | % Visual Injury BRSNA Obs [3, 12] | Obs % visual injury ([4]; partner alone 100 g ai/ha) | Obs % visual injury ([4]; partner alone 200 g ai/ha) | % Visual Injury BRSNN Obs [4, 10] | % Visual Injury Obs [4, 10] | % Visual Injury BRSNN Obs [4, 11] | % Visual Injury Obs [4, 11] | Obs % visual injury ([5]; partner alone 50 g ai/ha) | Obs % visual injury ([5]; partner alone 100 g ai/ha) | Obs % visual injury ([5]; partner alone 200 g ai/ha) | % Visual Injury BRSNN-NEX Obs [5, 9] | % Visual Injury Obs [5, 9] | % Visual Injury BRSNN-NEX Obs [5, 10] | % Visual Injury Obs [5, 10] | % Visual Injury BRSNN-NEX Obs [5, 11] | % Visual Injury Obs [5, 11] | % Visual Injury BRSNN-NEX Obs [5, 12] | Obs % visual injury ([6]; partner alone 50 g ai/ha) | Obs % visual injury ([6]; partner alone 100 g ai/ha) | Obs % visual injury ([6]; partner alone 200 g ai/ha) | % Visual Injury BRSNW Obs [6, 9] | % Visual Injury Obs [6, 9] | % Visual Injury BRSNW Obs [6, 10] | % Visual Injury Obs [6, 10] | % Visual Injury BRSNW Obs [6, 11] | % Visual Injury Obs [6, 11] | % Visual Injury BRSNW Obs [6, 12] | Obs % visual injury ([7]; partner alone 50 g ai/ha) | Obs % visual injury ([7]; partner alone 100 g ai/ha) | Obs % visual injury ([7]; partner alone 200 g ai/ha) | % Visual Injury BRSRR Obs [7, 9] | % Visual Injury Obs [7, 9] | % Visual Injury BRSRR Obs [7, 10] | % Visual Injury Obs [7, 10] | % Visual Injury BRSRR Obs [7, 11] | % Visual Injury Obs [7, 11] | % Visual Injury BRSRR Obs [7, 12] | Obs % visual injury ([8]; partner alone 50 g ai/ha) | Obs % visual injury ([8]; partner alone 100 g ai/ha) | Obs % visual injury ([8]; partner alone 200 g ai/ha) | % Visual Injury Obs [8, 9] | % Visual Injury RR-BRSNN Obs [8, 9] | % Visual Injury Obs [8, 10] | % Visual Injury RR-BRSNN Obs [8, 10] | % Visual Injury Obs [8, 11] | % Visual Injury RR-BRSNN Obs [8, 11] | % Visual Injury RR-BRSNN Obs [8, 12]
